Assay results published in patent US10272158B2, “Compounds for treating biofilm infection” (Board of Regents, The University of Texas System, priority 2014, dated 2019).
Values after ≈ are worked out from the molar mass of the structure shown. Values joined by “and” are separate entries in the source; they are usually repeats but may differ in a detail not shown here. Equal values may be shown once.

Legend:
Assay type in all cases: cell-based, Pseudomonas aeruginosa PAO1
[1] = system: P. aeruginosa biofilm formation phase; test: MIC80 in biofilm formation phase, XTT reduction assay; details: Pseudomonas aeruginosa, 24 h, read-out: critical concentration necessary for 80% suppression of P. aeruginosa viability (MIC80)
Procedure: (§1) Pseudomonas aeruginosa (P. aeruginosa) PAO1 was used throughout the study. Blood agar and Brain heart infusion (BHI) solution were used for culturing P. aeruginosa.
(§2) Prior to each experiment, P. aeruginosa was cultured on blood agar for 18 h at 37° C. A loopful of the overnight bacterial growth was inoculated into BHI medium, and incubated for 18 h in an orbital shaker (80 rpm) at 37° C. The resultant growth was harvested, washed twice in Phosphate Buffered Saline (PBS, pH 7.4) and resuspended. The concentration of P. aeruginosa was adjusted to 1×10^7 cells/mL by spectrophotometry and confirmed by hemocytometric counting.
(§3) P. aeruginosa biofilm was developed as described (Bandara et al., 2010) with minor modifications. Commercially available pre-sterilized, polystyrene, flat bottom 96-well microtiter plates (BD Biosciences, California, USA) were used. […]
Bacterial cell suspension was added in sterile 96 well plates and incubated for 90 min under similar conditions as described in the section of Biofilm Formation. […] After 24 h incubation under 37° C. and 80 rpm, reduction assay of 2,3-bis(2-methoxy-4-nitro-5-sulfo-phenyl)-2H-tetrazolium-5-carboxanilide (XTT) was performed to quantify the viability of biofilm and crystal violet assay was used to measure biofilm biomass.

[2] = system: P. aeruginosa planktonic phase; test: Minimum inhibitory concentration (MIC80) in planktonic phase, broth microdilution, optical density 595 nm; details: 24 h, 80% growth inhibition
Procedure: Pseudomonas aeruginosa (P. aeruginosa) PAO1 was used throughout the study. Blood agar and Brain heart infusion (BHI) solution were used for culturing P. aeruginosa. Prior to each experiment, P. aeruginosa was cultured on blood agar for 18 h at 37° C. A loopful of the overnight bacterial growth was inoculated into BHI medium, and incubated for 18 h in an orbital shaker (80 rpm) at 37° C. The resultant growth was harvested, washed twice in Phosphate Buffered Saline (PBS, pH 7.4) and resuspended. The concentration of P. aeruginosa was adjusted to 1×10^7 cells/mL by spectrophotometry and confirmed by hemocytometric counting. Briefly, bacterial cell suspension (5×10^5 cells/mL) were treated with the antibiotic in a concentration gradient and incubated in a 96 well microtiter plate for 24 h at 35° C. At the end of the incubation, the optical density of the bacterial growth was measured by a spectrophotometer at 595 nm. The lowest concentration of the antibiotic at which 80% of bacterial growth inhibition was achieved was considered as the MIC80 of this antibiotic against P. aeruginosa. The assay was performed quadruplicates at three times.

[3] = system: P. aeruginosa pre-formed biofilm; test: MIC80 in pre-formed biofilm phase, XTT reduction assay; details: pre-formed biofilm (24 h), 24 h treatment
Procedure: as §1, §2, §3
P. aeruginosa pre-formed biofilm was developed after 24 h incubation of adherent cells in sterile 96 well plates, as described in the section of Biofilm Formation. […] At the end of incubation period, XTT reduction assay was performed to quantify the viability of biofilm and crystal violet assay was used to measure biofilm biomass.

[4] = system: P. aeruginosa biofilm formation phase; test: Crystal violet assay of biofilm biomass, biofilm formation phase
Procedure: Bacterial cell suspension was added in sterile 96 well plates and incubated for 90 min under similar conditions as described in the section of Biofilm Formation. After the initial adhesion phase, adherent cells were treated with different samples in a concentration gradient, including control (PBS), tobramycin, and Tob-PEG. After 24 h incubation under 37° C. and 80 rpm, reduction assay of 2,3-bis(2-methoxy-4-nitro-5-sulfo-phenyl)-2H-tetrazolium-5-carboxanilide (XTT) was performed to quantify the viability of biofilm and crystal violet assay was used to measure biofilm biomass. At the end of incubation of both test and control biofilm, crystal violet assay was performed to quantify biofilm biomass. Biofilm was carefully washed twice with PBS and stained with 1% crystal violet solution for 15 min at 25° C. without shaking. Wells were carefully washed three times with PBS to remove excess stain and air dried in room temperature. Thirty percent acetic acid was added to the wells containing stained biofilm and incubated for 20 min at 25° C. The solution was transferred to a new well plate and optical density was measured at 570 nm.

[5] = system: P. aeruginosa pre-formed biofilm; test: Elimination of pre-formed biofilm in time dependent test (XTT); details: each at its biofilm MIC80 (Tob-PEG 27.81, tobramycin 89.80 μmol/L), 1-36 h
Procedure: P. aeruginosa pre-formed biofilm was developed as described previously and was treated with different samples at respective biofilm MIC80 concentrations. The plates were then incubated for 24 h at 37° C. and 80 rpm. XTT reduction assay was performed to selected samples at predetermined time points (1 h, 2 h, 3 h, 4 h, 5 h, 6 h, 9 h, 12 h, 15 h, 18 h, 21 h, 24 h and 36 h after incubation) to assess the percentage of time dependent bacterial inhibition.

MIC80 [1]: 1.4 µM (≈ 0.655 µg/mL)
Minimum inhibitory concentration (MIC80) [2]: 1.4 µM (≈ 0.655 µg/mL)
MIC80 ([2]; Pseudomonas aeruginosa): 1.4 µM (≈ 0.655 µg/mL)
critical concentration needed for 80% inhibition of viable P. aeruginosa pre-formed biofilm (MIC80) [3]: 89.80 µM and 89.8 µM
Compound: NC[C@H]1O[C@H](O[C@H]2[C@H](O)[C@@H](O[C@H]3O[C@H](CO)[C@@H](O)[C@H](N)[C@H]3O)[C@H](N)C[C@@H]2N)[C@H](N)C[C@@H]1O [tobramycin, Tobramycin]
increment of the biofilm biomass compared to control ([4]; 1.40 μmol/L, 24 h): 17%
biomass change versus untreated control ([4]; signed change): +17%
time dependent biofilm inhibition [5]: After 18 h, tobramycin was superior
